Assay results taken from patent publication US20060009478A1, “Methods for the treatment of back pain” (priority 2003, published 2006).

Test system: patients with moderate to severe chronic low back pain
Experiment: Short Opiate Withdrawal Scale (SOWS), low back pain study
[1] = patients with <4 weeks of dosing, ITT, change from baseline to day 4
[2] = patients with <4 weeks of dosing, ITT, last dose date (baseline)
[3] = patients with <4 weeks of dosing, ITT, opioid withdrawal monitoring day 1
[4] = patients with <4 weeks of dosing, ITT, opioid withdrawal monitoring day 2
[5] = patients with <4 weeks of dosing, ITT, opioid withdrawal monitoring day 3
[6] = patients with <4 weeks of dosing, ITT, opioid withdrawal monitoring day 4
[7] = patients with ≧4 weeks of dosing, ITT, change from baseline to day 1
[8] = patients with ≧4 weeks of dosing, ITT, change from baseline to day 2
[9] = patients with ≧4 weeks of dosing, ITT, change from baseline to day 3
[10] = patients with ≧4 weeks of dosing, ITT, change from baseline to day 4
[11] = patients with ≧4 weeks of dosing, ITT, last dose date (baseline)
[12] = patients with ≧4 weeks of dosing, ITT, opioid withdrawal monitoring day 1
[13] = patients with ≧4 weeks of dosing, ITT, opioid withdrawal monitoring day 2
[14] = patients with ≧4 weeks of dosing, ITT, opioid withdrawal monitoring day 3
[15] = patients with ≧4 weeks of dosing, ITT, opioid withdrawal monitoring day 4

Question: For COc1ccc2c3c1O[C@H]1C(=O)CC[C@@]4(O)[C@@H](C2)N(C)CC[C@]314 [OXY QID, oxycodone], which “SOWS change from baseline, MAX” value [1] is on record?
Answer: 0.8

Question: What about the “SOWS change from baseline, MEAN(SD)” value [1] of the same molecule?
Answer: 0.2 (0.41)

Question: And the “SOWS change from baseline, MEDIAN” value [1]?
Answer: 0.1

Question: What about the “SOWS change from baseline, MIN” value [1] of the same molecule?
Answer: −0.1

Question: And the “SOWS score, MAX” value [2]?
Answer: 0.7

Question: And the “SOWS score, MEAN(SD)” value [2]?
Answer: 0.3 (0.29)

Question: What about the “SOWS score, MEDIAN” value [2] of the same molecule?
Answer: 0.2

Question: And the “SOWS score, MIN” value [2]?
Answer: 0.0

Question: And the “SOWS score, MAX” value [3]?
Answer: 0.9

Question: And the “SOWS score, MEAN(SD)” value [3]?
Answer: 0.2 (0.27)

Question: And the “SOWS score, MEDIAN” value [3]?
Answer: 0.1

Question: And the “SOWS score, MIN” value [3]?
Answer: 0.0

Question: And the “SOWS score, MAX” value [4]?
Answer: 1.3

Question: And the “SOWS score, MEAN(SD)” value [4]?
Answer: 0.2 (0.38)

Question: And the “SOWS score, MEDIAN” value [4]?
Answer: 0.0

Question: What about the “SOWS score, MIN” value [4] of the same molecule?
Answer: 0.0

Question: And the “SOWS score, MAX” value [5]?
Answer: 1.3

Question: What about the “SOWS score, MEAN(SD)” value [5] of the same molecule?
Answer: 0.2 (0.39)

Question: What about the “SOWS score, MEDIAN” value [5] of the same molecule?
Answer: 0.0

Question: And the “SOWS score, MIN” value [5]?
Answer: 0.0

Question: And the “SOWS score, MAX” value [6]?
Answer: 0.8

Question: What about the “SOWS score, MEAN(SD)” value [6] of the same molecule?
Answer: 0.1 (0.26)

Question: And the “SOWS score, MEDIAN” value [6]?
Answer: 0.0

Question: And the “SOWS score, MIN” value [6]?
Answer: 0.0

Question: And the “SOWS change from baseline, MAXIMUM” value [7]?
Answer: 1.9

Question: What about the “SOWS change from baseline, MEAN(SD)” value [7] of the same molecule?
Answer: 0.3 (0.48)

Question: And the “SOWS change from baseline, MEDIAN” value [7]?
Answer: 0.2

Question: What about the “SOWS change from baseline, MINIMUM” value [7] of the same molecule?
Answer: −0.7

Question: What about the “SOWS change from baseline, MAXIMUM” value [8] of the same molecule?
Answer: 2.4

Question: What about the “SOWS change from baseline, MEAN(SD)” value [8] of the same molecule?
Answer: 0.3 (0.52)

Question: What about the “SOWS change from baseline, MEDIAN” value [8] of the same molecule?
Answer: 0.2

Question: What about the “SOWS change from baseline, MINIMUM” value [8] of the same molecule?
Answer: −1.1

Question: What about the “SOWS change from baseline, MAXIMUM” value [9] of the same molecule?
Answer: 1.7

Question: What about the “SOWS change from baseline, MEAN(SD)” value [9] of the same molecule?
Answer: 0.3 (0.48)

Question: What about the “SOWS change from baseline, MEDIAN” value [9] of the same molecule?
Answer: 0.2

Question: What about the “SOWS change from baseline, MINIMUM” value [9] of the same molecule?
Answer: −1.1

Question: And the “SOWS change from baseline, MAXIMUM” value [10]?
Answer: 2.7

Question: What about the “SOWS change from baseline, MEAN(SD)” value [10] of the same molecule?
Answer: 0.2 (0.55)

Question: And the “SOWS change from baseline, MEDIAN” value [10]?
Answer: 0.1

Question: And the “SOWS change from baseline, MINIMUM” value [10]?
Answer: −1.1

Question: What about the “SOWS score, MAXIMUM” value [11] of the same molecule?
Answer: 1.5

Question: What about the “SOWS score, MEAN(SD)” value [11] of the same molecule?
Answer: 0.3 (0.37)

Question: What about the “SOWS score, MEDIAN” value [11] of the same molecule?
Answer: 0.2

Question: What about the “SOWS score, MINIMUM” value [11] of the same molecule?
Answer: 0.0

Question: What about the “SOWS score, MAXIMUM” value [12] of the same molecule?
Answer: 2.5

Question: And the “SOWS score, MEAN(SD)” value [12]?
Answer: 0.5 (0.53)

Question: What about the “SOWS score, MEDIAN” value [12] of the same molecule?
Answer: 0.4

Question: What about the “SOWS score, MINIMUM” value [12] of the same molecule?
Answer: 0.0

Question: And the “SOWS score, MAXIMUM” value [13]?
Answer: 2.5

Question: What about the “SOWS score, MEAN(SD)” value [13] of the same molecule?
Answer: 0.6 (0.54)

Question: What about the “SOWS score, MEDIAN” value [13] of the same molecule?
Answer: 0.4

Question: And the “SOWS score, MINIMUM” value [13]?
Answer: 0.0

Question: And the “SOWS score, MAXIMUM” value [14]?
Answer: 2.2

Question: What about the “SOWS score, MEAN(SD)” value [14] of the same molecule?
Answer: 0.6 (0.53)

Question: And the “SOWS score, MEDIAN” value [14]?
Answer: 0.4

Question: And the “SOWS score, MINIMUM” value [14]?
Answer: 0.0

Question: And the “SOWS score, MAXIMUM” value [15]?
Answer: 2.7

Question: What about the “SOWS score, MEAN(SD)” value [15] of the same molecule?
Answer: 0.5 (0.55)

Question: And the “SOWS score, MEDIAN” value [15]?
Answer: 0.3

Question: And the “SOWS score, MINIMUM” value [15]?
Answer: 0.0

Question: And the “Mean SOWS score in the first 24 hours following drug discontinuation” value (patients with ≧4 weeks of dosing, p<0.01)?
Answer: 2.6
